{
  "source": "patent US7361687B2",
  "about": "“Arylsulphonamide derivatives and methods of preparing” (Laboratoires Fournier SA, priority 2002, dated 2008)",
  "data": [
    {"system": "formalin-induced pain response in mice", "assay": "formalin-induced pain response test in mice", "format": "in vivo", "conditions": "formalin 0.92% in hind paw, licking time 15 to 30 min after injection, dose 1 mg/kg i.v.", "description": "(§1) The compounds of the present invention were evaluated for their analgesic properties in the formalin-induced pain response test in mice (Shibata, M., Ohkubo, T., Takahashi, H. & R. Inoki. Modified formalin test: characteristic biphasic pain response. Pain, 38, 347-352). To summarize, formalin (0.92% in saline solution) is injected into the hind paw and the paw licking time, which reflects pain intensity, is recorded from 0 to 5 min (1st phase) and from 15 to 30 min (2nd phase) after injection.", "units": {"% inhibition of the 2nd paw licking phase": "%"}, "values": [
      {"molecule": "N-[[4-(4,5-dihydro-1H-imidazol-2-yl)phenyl]methyl]-2-[2-[[(4-methoxy-2,6-dimethylphenyl)sulphonyl]methylamino]ethoxy]-N-methyl-acetamide, trifluoroacetate [Example 49]", "% inhibition of the 2nd paw licking phase": 40}
    ]},
    {"system": "formalin-induced pain response in mice", "assay": "formalin-induced pain response test in mice", "format": "in vivo", "conditions": "formalin 0.92% in hind paw, licking time 15 to 30 min after injection, dose 10 mg/kg i.p.", "description": "as §1", "units": {"% inhibition of the 2nd paw licking phase": "%"}, "values": [
      {"molecule": "Cc1c(Cl)ccc(S(=O)(=O)N(CCCCC(=O)N(C)Cc2ccc(C3=NCCN3)cc2)CC(N)=O)c1Cl.O=C(O)C(F)(F)F", "note": "[Example 19, 5-[(2-amino-2-oxoethyl)[(2,4-dichloro-3-methylphenyl)sulphonyl]-amino]-N-[[4-(4,5-dihydro-1H-imidazol-2-yl)phenyl]methyl]-N-methyl-pentanamide, trifluoroacetate]", "% inhibition of the 2nd paw licking phase": 42}
    ]},
    {"system": "formalin-induced pain response in mice", "assay": "formalin-induced pain response test in mice", "format": "in vivo", "conditions": "formalin 0.92% in hind paw, licking time 15 to 30 min after injection, dose 100 mg/kg p.o.", "description": "as §1", "units": {"% inhibition of the 2nd paw licking phase": "%"}, "values": [
      {"molecule": "5-[[(2,3-dichlorophenyl)sulphonyl]methylamino]-N-[[4-(4,5-dihydro-1H-imidazol-2-yl)phenyl]methyl]-N-methyl-pentanamide, trifluoroacetate [Example 9]", "% inhibition of the 2nd paw licking phase": 60},
      {"molecule": "CN(Cc1ccc(C2=NCCN2)cc1)C(=O)CCCCN(C1CC1)S(=O)(=O)c1cccc(Cl)c1Cl.O=C(O)C(F)(F)F", "note": "[Example 16, 5-[cyclopropyl[(2,3-dichlorophenyl)sulphonyl]amino]-N-[[4-(4,5-dihydro-1H-imidazol-2-yl)phenyl]methyl]-N-methyl-pentanamide, trifluoroacetate]", "% inhibition of the 2nd paw licking phase": 80}
    ]},
    {"system": "not given", "assay": "not given", "conditions": "not given", "units": {"melting point": "°C"}, "values": [
      {"molecule": "CN(Cc1ccc(C2=NCCN2)cc1)C(=O)/C=C/CN(C)S(=O)(=O)c1ccc(OC(F)(F)F)cc1Cl.O=C(O)C(F)(F)F", "melting point": 68},
      {"molecule": "CN(Cc1ccc(C2=NCCN2)cc1)C(=O)/C=C/CN(C)S(=O)(=O)c1cccc2ccccc12.O=C(O)C(F)(F)F", "melting point": 77},
      {"molecule": "CN(Cc1ccc(C2=NCCN2)cc1)C(=O)CCCCN(C1CC1)S(=O)(=O)c1ccccc1Cl.O=C(O)C(F)(F)F", "melting point": 55},
      {"molecule": "CC(C)N(CCCCC(=O)N(C)Cc1ccc(C2=NCCN2)cc1)S(=O)(=O)c1c(Cl)cccc1Cl.O=C(O)C(F)(F)F", "melting point": 60},
      {"molecule": "Cc1c(Cl)ccc(S(=O)(=O)N(CCCCC(=O)N(C)Cc2ccc(C3=NCCN3)cc2)CCC(N)=O)c1Cl.O=C(O)C(F)(F)F", "melting point": 85},
      {"molecule": "CC(C)N(CCC(=O)N(C)Cc1ccc(C2=NCCN2)cc1)S(=O)(=O)c1cccc(Cl)c1Cl.O=C(O)C(F)(F)F", "melting point": 92},
      {"molecule": "CC(C)N(CCC(=O)N(C)Cc1ccc(C2=NCCN2)cc1)S(=O)(=O)c1c(Cl)cccc1Cl.O=C(O)C(F)(F)F", "melting point": 75},
      {"molecule": "CN(Cc1ccc(C2=NCCN2)cc1)C(=O)COCCN(C1CC1)S(=O)(=O)c1ccccc1Cl.O=C(O)C(F)(F)F", "melting point": 52},
      {"molecule": "CN(Cc1ccc(C2=NCCN2)cc1)C(=O)COCCN(C1CC1)S(=O)(=O)c1cccc(Cl)c1Cl.O=C(O)C(F)(F)F", "melting point": 65},
      {"molecule": "CN(Cc1ccc(C2=NCCN2)cc1)C(=O)COCCN(C1CC1)S(=O)(=O)c1c(Cl)cccc1Cl.O=C(O)C(F)(F)F", "melting point": 60},
      {"molecule": "Cc1c(Cl)ccc(S(=O)(=O)N(CCOCC(=O)N(C)Cc2ccc(C3=NCCN3)cc2)CCc2ccccc2)c1Cl.O=C(O)C(F)(F)F", "melting point": 85},
      {"molecule": "CN(Cc1ccc(C2=NCCN2)cc1)C(=O)CCN(C1CC1)S(=O)(=O)c1cccc(Cl)c1Cl.O=C(O)C(F)(F)F", "melting point": 80},
      {"molecule": "CN(Cc1ccc(C2=NCCN2)cc1)C(=O)CCN(C1CC1)S(=O)(=O)c1c(Cl)cccc1Cl.O=C(O)C(F)(F)F", "melting point": 65},
      {"molecule": "CN(Cc1ccc(C2=NCCN2)cc1)C(=O)CCN(CC(F)(F)F)S(=O)(=O)c1cccc(Cl)c1Cl.O=C(O)C(F)(F)F", "melting point": 88},
      {"molecule": "CN(Cc1ccc(C2=NCCN2)cc1)C(=O)CCN(CC(F)(F)F)S(=O)(=O)c1c(Cl)cccc1Cl.O=C(O)C(F)(F)F", "melting point": 80},
      {"molecule": "CN(Cc1ccc(C2=NCCN2)cc1)C(=O)/C=C/CN(C)S(=O)(=O)c1ccccc1C(F)(F)F.O=C(O)C(F)(F)F", "melting point": 50},
      {"molecule": "Cc1c(Cl)ccc(S(=O)(=O)NC/C=C/C(=O)N(C)Cc2ccc(C3=NCCN3)cc2)c1Cl.O=C(O)C(F)(F)F", "melting point": 99},
      {"molecule": "CN(Cc1ccc(C2=NCCN2)cc1)C(=O)COCCN(C)S(=O)(=O)c1ccccc1C(F)(F)F.O=C(O)C(F)(F)F", "melting point": 60},
      {"molecule": "CN(Cc1ccc(C2=NCCN2)cc1)C(=O)COCCN(C)S(=O)(=O)c1c(Cl)cc(C(F)(F)F)cc1Cl.O=C(O)C(F)(F)F", "melting point": 60},
      {"molecule": "CN(Cc1ccc(C2=NCCN2)cc1)C(=O)COCCN(C)S(=O)(=O)c1ccc(Cl)c(Cl)c1Cl.O=C(O)C(F)(F)F", "melting point": 70},
      {"molecule": "CN(Cc1ccc(C2=NCCN2)cc1)C(=O)COCCN(C)S(=O)(=O)c1cccc2ccccc12.O=C(O)C(F)(F)F", "melting point": 66},
      {"molecule": "CN(Cc1ccc(C2=NCCN2)cc1)C(=O)COCCN(C)S(=O)(=O)c1cccc(C(F)(F)F)c1.O=C(O)C(F)(F)F", "melting point": 60},
      {"molecule": "CN(Cc1ccc(C2=NCCN2)cc1)C(=O)CCCCN(C1CC1)S(=O)(=O)c1cccc(Cl)c1Cl.O=C(O)C(F)(F)F", "note": "[Example 16, 5-[cyclopropyl[(2,3-dichlorophenyl)sulphonyl]amino]-N-[[4-(4,5-dihydro-1H-imidazol-2-yl)phenyl]methyl]-N-methyl-pentanamide, trifluoroacetate]", "melting point": 70},
      {"molecule": "Cc1c(Cl)ccc(S(=O)(=O)N(CCCCC(=O)N(C)Cc2ccc(C3=NCCN3)cc2)CC(N)=O)c1Cl.O=C(O)C(F)(F)F", "note": "[Example 19, 5-[(2-amino-2-oxoethyl)[(2,4-dichloro-3-methylphenyl)sulphonyl]-amino]-N-[[4-(4,5-dihydro-1H-imidazol-2-yl)phenyl]methyl]-N-methyl-pentanamide, trifluoroacetate]", "melting point": 90}
    ]}
  ]
}
